Experimental data from PubChem BioAssay (NCI).
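Protocol summary: plate cells (96-well), add compound at 5 concentrations, incubate 48 h, interpolate endpoints linearly. TGI marks complete inhibition of growth.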

How the values were obtained:
Test in all cases: NCI-60 cell line screen, 48 h
A498 renal = system: A498 renal
RPMI-8226 leukemia = system: RPMI-8226 leukemia
NCI-H226 lung = system: NCI-H226 lung
BT-549 breast = system: BT-549 breast
OVCAR-4 ovarian = system: OVCAR-4 ovarian
NCI-H522 lung = system: NCI-H522 lung
DU-145 prostate = system: DU-145 prostate
TK-10 renal = system: TK-10 renal
HCC-2998 colon = system: HCC-2998 colon
UO-31 renal = system: UO-31 renal

Compound	TGI (A498 renal) [µM]	TGI (RPMI-8226 leukemia) [µM]	TGI (NCI-H226 lung) [µM]	TGI (BT-549 breast) [µM]	TGI (OVCAR-4 ovarian) [µM]	TGI (NCI-H522 lung) [µM]	TGI (DU-145 prostate) [µM]	TGI (TK-10 renal) [µM]	TGI (HCC-2998 colon) [µM]	TGI (UO-31 renal) [µM]
CCOP(=O)(/C=C/n1cc(C)c(=O)[nH]c1=O)OCC	> 100	> 100	> 100	> 100	> 100	> 100	> 100	> 100	–	–
COC1(CC[C@@H](C)COC2OC(CO)C(O)C(O)C2O)OC2C[C@H]3[C@@H]4CC[C@H]5C[C@@H](OC6OC(CO)C(OC7OC(CO)C(O)C(O)C7O)C(O)C6OC6OC(C)C(O)C(O)C6O)[C@H](O)C[C@]5(C)[C@H]4CC[C@]3(C)C2[C@@H]1C (some centres undefined)	3.38	4.58	4.52	–	3.96	4.63	3.92	3.82	3.24	3.31
O=c1[nH]c(=O)n(COC(CO)CO)cc1-c1ccccc1	–	> 100	–	–	> 100	> 100	> 100	> 100	> 100	> 100
O=S(=O)(Nc1nc2ccccc2nc1N1CCCCCC1)c1ccccc1	–	> 100	> 100	50.1	36.4	57.1	> 100	40	31.9	33.9
O=C(O)CSC(CC(=O)c1ccc(Cl)cc1)c1ccc(Cl)cc1 (centres undefined)	> 100	61.2	–	80.7	> 100	45.3	> 100	> 100	–	> 100
C/C(=N\Nc1nc2ccccc2s1)c1ccncn1	> 100	> 26	1.07	21.4	42.4	2.05	> 66.1	–	> 41.9	10.2
N[C@@H](CCC(=O)NC(Cc1ccccc1)C(=O)NCP(=O)(O)O)C(=O)O (some centres undefined)	> 100	> 100	–	> 100	–	> 100	–	> 100	> 100	> 100
CN(CCCCCl)P(=O)(OCc1ccc([N+](=O)[O-])o1)OCC1OC(n2ccc(N)nc2=O)C(O)C1O (centres undefined)	–	6.07	> 100	–	29.1	24.3	44.6	> 100	12.6	> 100
C[s+]1c2ccccc2c2ccccc21	–	> 100	> 100	–	> 100	> 100	–	> 100	> 100	> 100
NC(=O)CCC(N=c1c2ccccc2n(O)c2ccccc12)C(=O)O (centres undefined)	> 100	97.3	> 100	–	> 100	> 100	–	> 100	> 100	> 100
O=C1NC(O)c2cc3ccccc3cc2O1 (centres undefined)	–	> 100	> 100	82.1	> 100	> 100	> 100	> 100	> 100	> 100
CC(O)c1nc(C#N)c(N)o1 (centres undefined)	> 100	> 100	> 100	–	–	> 100	> 100	> 100	–	> 100
CC(C)(C)C(=O)Nc1c(C=O)ccc2[nH]cnc12	> 100	> 100	> 100	> 100	> 100	> 100	–	> 100	> 100	> 100
O=[N+]([O-])c1ccc(-n2nc3ccc4nonc4c3n2)cc1	–	> 100	65.3	63.7	47	> 100	> 100	39.9	> 100	62.9
CCOC(=O)c1c(-c2ccc(OC)cc2)ccn1C	–	–	> 10	> 10	> 10	> 10	> 10	> 10	> 10	> 10
O=C1c2ccccc2-c2nc3ccncc3n21	–	> 100	> 100	> 100	> 100	> 100	> 100	> 100	> 100	> 100
COc1cc2c[n+]3c4c(c2c(OC)c1OC)CCCC4CC3 (centres undefined)	> 100	> 100	–	–	> 100	> 100	> 100	–	> 100	> 100
C=C(C)C1CC(=O)C(C)=C(O)C1 (centres undefined)	–	–	> 100	> 100	> 100	> 100	> 100	> 100	> 100	> 100
Oc1ccc(C(O)C2CCCCN2)cc1O (centres undefined)	> 100	> 100	> 100	> 100	> 100	> 100	> 100	> 100	–	> 100
CCN1CC2(C)CCC(OC)C34C5CC6CCC(O)(C5C(=O)O6)C(C(O)C23)C14 (centres undefined)	> 100	> 100	–	> 100	> 100	> 100	> 100	> 100	–	> 100
CC(=O)n1[nH]c(=O)n(-c2ccc(Cl)cc2)c1=O	–	> 100	> 100	> 100	> 100	> 100	> 100	> 100	> 100	> 100
COc1ccc(-c2ccc(C(=O)C=P(c3ccccc3)(c3ccccc3)c3ccccc3)cc2)cc1	31.9	5.01	27.7	–	25	–	39.4	47.1	15.2	13
CCc1nc(N)c2nc(-c3cccs3)oc2n1	–	> 100	> 100	> 100	–	> 100	> 100	> 100	> 100	> 100
O=C1/C(=C/c2ccccc2)Oc2cc(O)ccc21	–	> 100	> 100	> 100	> 100	> 100	> 100	> 100	> 100	> 100

Compound	TGI (A498 renal) [µM]	TGI (RPMI-8226 leukemia) [µM]	TGI (NCI-H226 lung) [µM]	TGI (BT-549 breast) [µM]	TGI (OVCAR-4 ovarian) [µM]	TGI (NCI-H522 lung) [µM]	TGI (DU-145 prostate) [µM]	TGI (TK-10 renal) [µM]	TGI (HCC-2998 colon) [µM]	TGI (UO-31 renal) [µM]
CCCCCC[C@H]([C@H](C)O)n1cnc2c(N)ncnc21	–	> 100	> 100	–	> 100	–	> 100	> 100	> 100	> 100
CCC1(O)CC(CCN(Cc2ccccc2)C(=O)OCc2ccccc2)C(OCc2ccccc2)C1O (centres undefined)	–	–	25.3	33.3	22	23.5	36.3	36.8	28.9	33.7
CCOC(=O)c1cc(-c2ccc(OC)cc2)c([N+](=O)[O-])[nH]1	> 10	–	> 10	> 10	> 10	> 10	> 10	> 10	> 10	> 10
COC(=O)c1c2c(cc3c1CC1(Cc4cc5c(c(C=O)c4C1)CCC5)C3)CCC2 (centres undefined)	> 100	> 100	–	–	> 100	56.6	> 100	> 100	95.2	71.8
COc1cc2c(cc1OC)C(=O)N(c1ccc(OCCN3CCCC3)cc1)C2	> 100	> 100	> 100	> 100	> 100	> 100	> 100	> 100	> 100	–
O=c1c2cc(Br)cc(Br)c2[nH]c(=S)n1-c1ccc(N=Nc2ccc(O)c3cccnc23)cc1	> 100	> 100	> 100	–	> 100	60.8	> 100	> 100	–	> 100
CCN(CC)C(=S)SC(C(=O)Nc1nnc(-c2ccc(Cl)cc2)o1)c1ccccc1 (centres undefined)	41.4	22	–	66.7	18.6	26.6	94	62.3	16.9	52.1
Cc1cn(CCCCCCOC(=O)NC(CCCNC(N)=O)C(=O)O)c(=O)[nH]c1=O (centres undefined)	> 100	> 100	> 100	> 100	> 100	–	> 100	> 100	> 100	> 100
O=C(CNc1ccccc1C(=O)O)Nn1cnc2ccc(S(=O)(=O)Nc3ccccc3C(=O)O)cc2c1=O	–	> 100	> 100	> 100	> 100	> 100	> 100	> 100	> 100	> 100
COC(=O)[C@]1(c2cc3ccccc3n2S(=O)(=O)c2ccccc2)CC2CN(C(=O)OCc3ccccc3)C1C1OC(C)(C)OC21 (some centres undefined)	–	> 100	> 100	> 100	> 100	> 100	> 100	> 100	> 100	> 100
CC1=NN(C(=O)CC(=O)Nc2cccc(C)c2)C(=O)C1N=Nc1ccc(S(=O)(=O)CCOS(=O)(=O)O)cc1 (centres undefined)	37.1	> 100	6.79	–	27	0.835	> 100	26.2	5.51	10.5
Cn1/c(=N\N=C2\C=C3CCCCC3(C)CC2)sc2ccccc21 (centres undefined)	> 100	–	> 100	> 100	> 100	> 100	> 100	> 100	> 100	> 100
COC(=O)c1sc(=O)sc1SCc1cccc(CSc2sc(=O)sc2C(=O)OC)c1	> 100	–	> 100	> 100	37.7	> 100	> 100	57.5	> 100	> 100
COC1CC(C)(NC(=O)C(F)(F)F)C2OC(c3ccccc3)OCC2O1 (centres undefined)	> 100	> 100	> 100	> 100	> 100	> 100	> 100	> 100	–	> 100
N#Cc1c(-c2ccc([N+](=O)[O-])cc2)c(C#N)c(=O)n(NS(=O)(=O)c2ccccc2)c1S	> 100	44.6	> 100	39.2	> 100	42.4	–	> 100	> 100	–
N#Cc1nc(CCc2nc(C#N)c(N)o2)oc1N	–	> 10	> 10	> 10	> 10	> 10	> 10	> 10	> 10	> 10
CC1=C(C)C(=O)C(C2=CC(=O)c3ccccc3C2=O)=C(C2=CC(=O)c3ccccc3C2=O)C1=O	50.8	–	49.5	48.1	42.8	17.4	12.5	> 38.4	19.8	25.4
CC1OC(OC2C(O[C@H]3CC[C@@]4(C)C(=CC[C@H]5[C@@H]6C[C@@H]7O[C@]8(CC[C@@H](C)CO8)[C@@H](C)[C@@H]7[C@@]6(C)CC[C@@H]54)C3)OC(CO)C(O)C2OC2OC(CO)C(O)C(O)C2O)C(O)C(O)C1O (some centres undefined)	3.15	–	–	4.73	3.31	3.42	4.09	4.01	3.34	3.5
CCOC(=O)c1c(N)sc2c1C(C(=O)OCC)CCCC2 (centres undefined)	75.8	> 100	> 100	> 100	–	–	–	> 100	> 100	> 100
Cc1nc(NC(C)(CO)CO)nc(N/N=C/c2ccc(Cl)cc2)c1C(=O)Nc1ccc(Cl)cc1	–	> 100	> 100	> 100	> 100	> 100	> 100	> 100	> 100	> 100
CC(C)(C)C1CCC2c3c([nH]c4ccccc34)C3C(=O)N(c4ccc([N+](=O)[O-])cc4)C(=O)C3C2C1 (centres undefined)	79.4	> 100	29	36.9	71.9	40.8	> 100	78.2	27.4	–
O=C(O)C(Cc1ccccc1)NCc1c(O)ccc2c(-c3ccccc3)cc(=O)oc12 (centres undefined)	–	> 100	> 100	–	> 100	> 100	> 100	> 100	> 100	> 100
COP(=O)(OC)OCN(C)CC/C=C(\C)CC/C=C(\C)CCC=C(C)C	> 100	28.3	34.6	30	> 100	26.1	–	21.9	23.8	28.3
